According to patent US8685456B2, “Topical compositions comprising nanoparticles of an isoflavone” (DSM IP Assets B.V., priority 2005, dated 2014):

Experiments:
[1] = Genistein particle size by laser diffraction technique (Mastersizer 2000); format: physicochemical
[2] = “swing” test (changing temperature test, 5° C./43° C.), microscopical examination; format: physicochemical; settings: O/W emulsions with genistein of example 7 after dry grinding in a Jet mill only (FIG. 7), 0.3%, 0.5% and 0.1% (1.0% elsewhere in the source); ten sequences 5° C./43° C., 24 hours each
Procedure: To further illustrate the benefits obtained with nanoparticles of genistein versus conventional crystalline genistein, the cosmetic formulations described above (#3 and #4) were submitted to a very challenging stability test: The formulations were stored at a temperature varying from 5° C. to 43° C. every 24 hours during 3 weeks. […] (cycles of 24 hours at each temperature).
To force the crystallization in a disperse system, a test was used in which the temperature is changed over a self-defined timeframe and in self-defined sequences. The test is called “swing” test (changing temperature test). The purpose of this test is to dissolve small particles at the higher temperature and to force re-crystallization at lower temperature. […] The following formulations were used for the “swing” test: […]
To force this crystallization the “swing” test was used and as minimum and maximum temperatures 5° C. and 43° C. were chosen. Each temperature was held over a period of 24 hours. The duration of this test was at first set to 20 days, which means that the samples run through a cooling/heating sequence (=1 sequence) 10 times.
FIGS. 5 to 7 show the results of the “swing” test. […] The following genistein samples and concentrations were employed and the emulsions were measured immediately after preparation and after subjecting the samples to ten sequences of the “swing” test: […]

[3] = Example 1, after homogenization (42 passes) and spray-drying, re-dispersed in water
[4] = Example 1, after homogenization (42 passes, 1500 bar) with starch sodium octenyl succinate, aqueous suspension
[5] = Example 1, genistein powder before homogenization
[6] = Example 2, after homogenization (40 passes, 1500 bar) in water, no carrier
[7] = Example 2, after homogenization (42 passes) and spray-drying, re-dispersed in water
[8] = Example 2, after homogenization (42 passes), starch sodium octenyl succinate added after 40th pass
[9] = Example 2, genistein powder before homogenization
[10] = Example 3, after homogenization (40 passes, 1500 bar) in water, no carrier
[11] = Example 3, after homogenization (42 passes) and spray-drying, re-dispersed in water
[12] = Example 3, after homogenization (42 passes), starch sodium octenyl succinate added after 40th pass
[13] = Example 3, genistein powder before homogenization
[14] = Example 4, after homogenization (20 passes, 700 bar) in water, no carrier
[15] = Example 4, genistein powder before homogenization
[16] = Example 5, Table XI, headed after homogenization (42 passes) and spray-drying, maltodextrin added after 40th pass, suspension before drying
[17] = Example 5, Table XII, after homogenization (42 passes) and spray-drying, maltodextrin carrier, re-dispersed in water
[18] = Example 5, after homogenization (20 passes) as headed, text: 40 times, 1500 bar, in water, no carrier
[19] = Example 5, genistein powder before homogenization
[20] = Example 6, after homogenization (11 passages) in agitated bead mill with starch sodium octenyl succinate
[21] = Example 6, genistein powder before homogenization
[22] = Example 7, Table XIV, before milling and homogenization
[23] = Example 7, Table XV, before milling and homogenization
[24] = Example 7, after milling (Jet mill) and homogenization (12 times, 700 bar) with starch sodium octenyl succinate
[25] = Example 7, after milling, homogenization and spray drying

Average particle size D[3, 2] [1, 3]: 0.14 microns | Average particle size D[4, 3] [1, 3]: 0.83 microns | D (v, 0.1) [1, 3]: 0.07 microns | D (v, 0.5) [1, 3]: 0.16 microns | D (v, 0.9) [1, 3]: 2.86 microns | Average particle size D[3, 2] [1, 4]: 0.15 microns | Average particle size D[4, 3] [1, 4]: 0.97 microns | D (v, 0.1) [1, 4]: 0.07 microns | D (v, 0.5) [1, 4]: 0.17 microns | D (v, 0.9) [1, 4]: 3.65 microns | Average particle size D[3, 2] [1, 5]: 23.1 microns | Average particle size D[4, 3] [1, 5]: 48.5 microns | D (v, 0.1) [1, 5]: 17.1 microns | D (v, 0.5) [1, 5]: 41.9 microns | D (v, 0.9) [1, 5]: 91.0 microns | Average particle size D[3, 2] [1, 6]: 0.14 microns | Average particle size D[4, 3] [1, 6]: 0.76 microns | D (v, 0.1) [1, 6]: 0.07 microns | D (v, 0.5) [1, 6]: 0.16 microns | D (v, 0.9) [1, 6]: 2.42 microns | Average particle size D[3, 2] [1, 7]: 0.14 microns | Average particle size D[4, 3] [1, 7]: 0.55 microns | D (v, 0.1) [1, 7]: 0.07 microns | D (v, 0.5) [1, 7]: 0.15 microns | D (v, 0.9) [1, 7]: 1.14 microns | Average particle size D[3, 2] [1, 8]: 0.14 microns | Average particle size D[4, 3] [1, 8]: 0.41 microns | D (v, 0.1) [1, 8]: 0.07 microns | D (v, 0.5) [1, 8]: 0.16 microns | D (v, 0.9) [1, 8]: 0.93 microns | Average particle size D[3, 2] [1, 9]: 23.1 microns | Average particle size D[4, 3] [1, 9]: 48.5 microns | D (v, 0.1) [1, 9]: 17.1 microns | D (v, 0.5) [1, 9]: 41.9 microns | D (v, 0.9) [1, 9]: 91.0 microns | Average particle size D[3, 2] [1, 10]: 0.14 microns | Average particle size D[4, 3] [1, 10]: 0.76 microns | D (v, 0.1) [1, 10]: 0.07 microns | D (v, 0.5) [1, 10]: 0.16 microns | D (v, 0.9) [1, 10]: 2.00 microns | Average particle size D[4, 3] [1, 11]: 0.43 microns | D (v, 0.1) [1, 11]: 0.07 microns | D (v, 0.5) [1, 11]: 0.16 microns | D (v, 0.9) [1, 11]: 0.97 microns | Average particle size D[3, 2] [1, 12]: 0.14 microns | Average particle size D[4, 3] [1, 12]: 0.40 microns | D (v, 0.1) [1, 12]: 0.07 microns | D (v, 0.5) [1, 12]: 0.16 microns | D (v, 0.9) [1, 12]: 0.91 microns | Average particle size D[3, 2] [1, 13]: 23.1 microns | Average particle size D[4, 3] [1, 13]: 48.5 microns | D (v, 0.1) [1, 13]: 17.1 microns | D (v, 0.5) [1, 13]: 41.9 microns | D (v, 0.9) [1, 13]: 91.0 microns | Average particle size D[3, 2] [1, 14]: 0.13 microns | Average particle size D[4, 3] [1, 14]: 0.83 microns | D (v, 0.1) [1, 14]: 0.07 microns | D (v, 0.5) [1, 14]: 0.15 microns | D (v, 0.9) [1, 14]: 2.62 microns | Average particle size D[3, 2] [1, 15]: 23.1 microns | Average particle size D[4, 3] [1, 15]: 48.5 microns | D (v, 0.1) [1, 15]: 17.1 microns | D (v, 0.5) [1, 15]: 41.9 microns | D (v, 0.9) [1, 15]: 91.0 microns | Average particle size D[3, 2] [1, 16]: 0.14 microns | Average particle size D[4, 3] [1, 16]: 0.41 microns | D (v, 0.1) [1, 16]: 0.07 microns | D (v, 0.5) [1, 16]: 0.16 microns | D (v, 0.9) [1, 16]: 0.93 microns | Average particle size D[3, 2] [1, 17]: 0.13 microns | Average particle size D[4, 3] [1, 17]: 0.41 microns | D (v, 0.1) [1, 17]: 0.07 microns | D (v, 0.5) [1, 17]: 0.15 microns | D (v, 0.9) [1, 17]: 0.93 microns | Average particle size D[2, 3] [1, 18]: 0.14 microns | Average particle size D[4, 3] [1, 18]: 0.42 microns | D (v, 0.1) [1, 18]: 0.07 microns | D (v, 0.5) [1, 18]: 0.16 microns | D (v, 0.9) [1, 18]: 0.92 microns | Average particle size D[2, 3] [1, 19]: 23.1 microns | Average particle size D[4, 3] [1, 19]: 48.5 microns | D (v, 0.1) [1, 19]: 17.8 microns | D (v, 0.5) [1, 19]: 41.4 microns | D (v, 0.9) [1, 19]: 90.2 microns | Average particle size D[4, 3] [1, 20]: 0.23 microns | D (v, 0.1) [1, 20]: 0.07 microns | D (v, 0.5) [1, 20]: 0.16 microns | D (v, 0.9) [1, 20]: 0.45 microns | Average particle size D[4, 3] [1, 21]: 48.5 microns | D (v, 0.1) [1, 21]: 17.8 microns | D (v, 0.5) [1, 21]: 41.4 microns | D (v, 0.9) [1, 21]: 90.2 microns | Average particle size D[4, 3] [1, 22]: 48.5 microns | D (v, 0.1) [1, 22]: 17.8 microns | D (v, 0.5) [1, 22]: 41.4 microns | D (v, 0.9) [1, 22]: 90.2 microns | Average particle size D[4, 3] [1, 23]: 48.5 microns | D (v, 0.1) [1, 23]: 17.8 microns | D (v, 0.5) [1, 23]: 41.4 microns | D (v, 0.9) [1, 23]: 90.2 microns | Average particle size D[4, 3] [1, 24]: 0.53 microns | D (v, 0.1) [1, 24]: 0.07 microns | D (v, 0.5) [1, 24]: 0.18 microns | D (v, 0.9) [1, 24]: 1.38 microns | Average particle size D[4, 3] [1, 25]: 0.65 microns | D (v, 0.1) [1, 25]: 0.08 microns | D (v, 0.5) [1, 25]: 0.19 microns | D (v, 0.9) [1, 25]: 1.84 microns | Average particle size D[2, 3] ([1]; after homogenization (42 passes) and spray-drying, re-dispersed in water): 0.14 microns | Change of particle size during the “swing” test [2]: significantly changed
Compound: O=c1c(-c2ccc(O)cc2)coc2cc(O)cc(O)c12 [Genistein, 4′,5,7-trihydroxyisoflavone]
